Literature values as cited in patent US6376509B2, “Melanocortin receptor agonists” (Merck & Co., Inc., priority 2000, dated 2002).

Legend:
[1] = tested on: erectile dysfunction; details: for duration of effect / onset of action: after an oral dose; for share of patients with adequate response: oral, men with erectile dysfunction
[2] = tested on: psychogenic erectile dysfunction

Compound	duration of effect [1]	onset of action [1] [min]	share of patients with adequate response [1]	absorption into the systemic circulation ([2]; in vivo, po)	response rate ([2]; injected intramuscularly or subcutaneously, males with psychogenic erectile dysfunction) [%]	duration of action ([2]; subcutaneous injection)	time to onset of erection ([2]; subcutaneous injection) [min]
Cc1ccc(N(CC2=NCCN2)c2cccc(O)c2)cc1 [phentolamine]	2 h	5 to 30	35-40%				
CCCc1nn(C)c2c(=O)[nH]c(-c3cc(S(=O)(=O)N4CCN(C)CC4)ccc3OCC)nc12 [sildenafil]	about 4 hours	30 to 60	about 70%				
Ac-Nle-c[Asp-His-DPhe-Arg-Trp-Lys]-NH2 [MT-II]				not absorbed into the systemic circulation	75	approximately 2.5 hours	10 to 20
